# ChEMBL document CHEMBL6096729, “Creating Glepaglutide, the First Long-Acting GLP-2 Analogue to Enable a Ready-to-Use Injection” (J Med Chem, 2025)
# What was measured:
# [1] = target: T1, Glucagon-like peptide 2 receptor (Homo sapiens) (UniProt O95838); experiment: Agonist activity at recombinant human GLP-2R overexpressed in HEK293 cells assessed as cAMP accumulation by HTRF assay relative to control; format: functional, cell-based; details: filed as agonist
# T1 sequence (whole entry): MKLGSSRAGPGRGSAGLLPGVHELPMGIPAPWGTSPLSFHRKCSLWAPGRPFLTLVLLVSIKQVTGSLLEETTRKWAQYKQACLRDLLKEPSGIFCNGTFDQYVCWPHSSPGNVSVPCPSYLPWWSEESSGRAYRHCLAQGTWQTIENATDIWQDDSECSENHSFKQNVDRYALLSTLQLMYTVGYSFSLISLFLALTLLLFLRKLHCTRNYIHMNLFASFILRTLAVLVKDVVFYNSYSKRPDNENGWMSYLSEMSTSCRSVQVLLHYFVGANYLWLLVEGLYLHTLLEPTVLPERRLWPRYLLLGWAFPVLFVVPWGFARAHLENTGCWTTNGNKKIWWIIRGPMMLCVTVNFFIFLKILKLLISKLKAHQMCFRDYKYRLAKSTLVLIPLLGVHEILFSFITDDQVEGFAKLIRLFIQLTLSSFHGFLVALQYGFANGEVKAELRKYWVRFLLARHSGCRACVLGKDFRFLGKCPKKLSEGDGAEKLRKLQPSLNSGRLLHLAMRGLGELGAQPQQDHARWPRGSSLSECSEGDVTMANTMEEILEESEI
# Mus musculus = experiment: Effect on small intestine of C57BL mouse assessed as mass of small intestine at 30 nmol/kg bid for 10 days relative to teduglutide; format: functional; details: time 10 day
# [2] = Stability of compound assessed as change in fluorescence intensity measured after 96 hrs by ThT fibrillation assay; format: physicochemical
# [3] = target: T2, Glucagon-like peptide 2 receptor (Homo sapiens, UniProt O95838); experiment: Agonist activity at recombinant human GLP-2R overexpressed in HEK293 cells assessed as cAMP accumulation by HTRF assay; format: functional, cell-based
# T2 sequence (O95838 whole entry): T1 sequence (whole entry)
# [4] = Chemical stability in 50 mM Histidine at pH 7.0 at 40 degreeC assessed as fold decrease in total degradation measured after 3 weeks by HPLC analysis relative to teduglutide; format: physicochemical; details: buffer, pH 7, 504 h
# [5] = Half life in human; format: ADME
Molecule,Efficacy [1] [%],Activity (Mus musculus) [%],Activity [2],EC50 [3] [nM],Flu intensity [2] [RFU],fold change (FC) [4],half-life [5] [h]
CC[C@H](C)[C@H](NC(=O)[C@H](Cc1ccccc1)NC(=O)[C@H](CC(=O)O)NC(=O)[C@H](CCCNC(=N)N)NC(=O)[C@H](C)NC(=O)[C@H](C)NC(=O)[C@H](CC(C)C)NC(=O)[C@H](CC(N)=O)NC(=O)[C@H](CC(=O)O)NC(=O)[C@H](CC(C)C)NC(=O)[C@@H](NC(=O)[C@@H](NC(=O)[C@H](CC(N)=O)NC(=O)[C@H](CCSC)NC(=O)[C@H](CCC(=O)O)NC(=O)[C@H](CC(=O)O)NC(=O)[C@H](CO)NC(=O)[C@H](Cc1ccccc1)NC(=O)[C@H](CO)NC(=O)CNC(=O)[C@H](CC(=O)O)NC(=O)CNC(=O)[C@@H](N)Cc1c[nH]cn1)[C@@H](C)O)[C@@H](C)CC)C(=O)N[C@@H](CC(N)=O)C(=O)N[C@@H](Cc1c[nH]c2ccccc12)C(=O)N[C@@H](CC(C)C)C(=O)N[C@H](C(=O)N[C@@H](CCC(N)=O)C(=O)N[C@H](C(=O)N[C@@H](CCCCN)C(=O)N[C@H](C(=O)N[C@H](C(=O)N[C@@H](CC(=O)O)C(=O)O)[C@@H](C)O)[C@@H](C)CC)[C@@H](C)O)[C@@H](C)CC,101,–,–,–,–,–,–
H-HGEGSFSSELSTILDALAARDFIAWLIATKITDKKKKKK-NH2,100,109,Not_active,0.18,–,–,–
H-HGEGSFSDELSTILDALAARDFIAWLIATKITDKKKKKK-OH,–,–,Not_active,–,–,–,–
H-HGEGTFSSELSTILDALAARDFIAWLIATKITDKKKKKK-NH2,102,106,Not_active,0.37,–,–,–
H-HGEGTFSSELSTILDALAARDFIAWLIATKITD-NH2,101,101,–,0.18,500,–,–
H-HGEGSFSSELSTILDALAARDFIAWLIATKITD-NH2,102,106,–,0.11,500,–,–
H-HGEGTFSSELATILDALAARDFIAWLIATKITDKKKKKK-NH2,102,109,Not_active,0.18,–,2.6,88
H-HGEGTFSSELATILDALAARDFIAWLIATKITD-NH2,100,117,Not_active,0.1,–,–,–
H-HGEGSFSDELSTILDALAARDFIAWLIATKITD-NH2,–,–,–,–,500,–,–
H-HGEGTFSDELSTILDALAARDFIAWLIATKITDKKKKKK-NH2,102,105,Not_active,0.34,–,–,–
H-HGEGTFSDELSTILDALAARDFIAWLIATKITD-NH2,104,98,–,0.09,500,–,–
